Measured values as given in ChEMBL document CHEMBL1132096, “Structure-related enhancing activity of escins Ia, Ib, IIa and IIb on magnesium absorption in mice” (1999).

Experiments:
Mus musculus [1] = experiment: Increased Magnesium ion level in 0.5 M MgSO4 loaded ([…] p.o.) mice at a concentration of 5 mg/kg administered perorally; type: functional; conditions: route oral
Mus musculus [2] = experiment: Serum Magnesium ion level in 0.5 M MgSO4 loaded ([…] p.o.) mice at a concentration of 5 mg/kg administered perorally; type: functional, organism-based; design: dose 5 mg/kg
Mus musculus [3] = experiment: Serum Magnesium ion level in MgSO4 unloaded mice at a concentration of 25 mg/kg administered perorally; type: functional, organism-based; design: dose 25 mg/kg
Mus musculus [4] = experiment: Increased Magnesium ion level in 0.5 M MgSO4 loaded ([…] p.o.) mice at a concentration of 25 mg/kg administered perorally; type: functional; conditions: route oral
Mus musculus [5] = experiment: Serum Magnesium ion level in 0.5 M MgSO4 loaded ([…] p.o.) mice at a concentration of 25 mg/kg administered perorally.; type: functional, organism-based; design: dose 25 mg/kg
Mus musculus [6] = experiment: Serum Magnesium ion level in 0.5 M MgSO4 loaded ([…] p.o.) mice at a concentration of 12.5 mg/kg administered perorally; type: functional, organism-based; design: dose 12.5 mg/kg
Mus musculus [7] = experiment: Increased Magnesium ion level in 0.5 M MgSO4 loaded ([…] p.o.) mice at a concentration of 12.5 mg/kg administered perorally; type: functional; conditions: route oral
Mus musculus [8] = experiment: Serum Magnesium ion level in 0.5 M MgSO4 loaded ([…] p.o.) mice pretreatment with Insulin (1U/kg, s.c) at a concentration of 12.5 mg/kg administered perorally; type: functional, organism-based; design: dose 12.5 mg/kg
Mus musculus [9] = experiment: Serum Magnesium ion level in 1.67 M MgSO4 loaded ([…] p.o.) mice at a concentration of 50 mg/kg administered perorally; type: functional, organism-based; design: dose 50 mg/kg
Mus musculus [10] = experiment: Serum Magnesium ion level in 1.67 M MgSO4 loaded ([…] p.o.) mice pretreatment with STZ (100 mg/kg, i.v.) at a concentration of 50 mg/kg administered perorally; type: functional, organism-based; design: dose 50 mg/kg
Mus musculus [11] = experiment: Increased Magnesium ion level in 0.5 M MgSO4 loaded ([…]) mice pretreatment with Indomethacin (10 mg/kg, s.c) at a concentration of 12.5 mg/kg administered perorally; type: functional; conditions: route oral
Mus musculus [12] = experiment: Serum Magnesium ion level in 0.5 M MgSO4 loaded ([…] p.o.) mice pretreatment with Indomethacin (10 mg/kg, s.c) at a concentration of 12.5 mg/kg administered perorally; type: functional, organism-based; design: dose 12.5 mg/kg
Mus musculus [13] = experiment: Serum Magnesium ion level in 0.5 M MgSO4 loaded ([…] p.o.) mice at a concentration of 25 mg/kg administered perorally; type: functional, organism-based; design: dose 25 mg/kg
Mus musculus [14] = experiment: Increased Magnesium ion level in 1.67 M MgSO4 loaded ([…] p.o.) mice pretreatment with STZ (100 mg/kg, i.v.) at a concentration of 50 mg/kg administered perorally; type: functional; conditions: route oral
Mus musculus [15] = experiment: Increased Magnesium ion level in 1.67 M MgSO4 loaded ([…] p.o.) mice at a concentration of 50 mg/kg administered perorally; type: functional; conditions: route oral
Mus musculus [16] = experiment: Increased Magnesium ion level in 0.5 M MgSO4 loaded ([…] p.o.) mice pretreatment with Insulin (1U/kg, s.c) at a concentration of 12.5 mg/kg administered perorally; type: functional; conditions: route oral

Row | Compound | Increase (Mus musculus [1]) | Serum Mg2+ level (Mus musculus [2]) | Serum Mg2+ level (Mus musculus [3]) | Increase (Mus musculus [4]) | Serum Mg2+ level (Mus musculus [5]) | Serum Mg2+ level (Mus musculus [6]) | Increase (Mus musculus [7]) | Serum Mg2+ level (Mus musculus [8]) | Serum Mg2+ level (Mus musculus [9]) | Serum Mg2+ level (Mus musculus [10]) | Increase (Mus musculus [11]) | Serum Mg2+ level (Mus musculus [12]) | Serum Mg2+ level (Mus musculus [13]) | Increase (Mus musculus [14]) | Increase (Mus musculus [15]) | Increase (Mus musculus [16])
1 | C/C=C(\C)C(=O)O[C@H]1[C@H](OC(C)=O)[C@@]2(CO)C(CC1(C)C)C1=CCC3[C@@]4(C)CC[C@H](O[C@@H]5OC(C(=O)O)C(O[C@@H]6OC(CO)C(O)[C@@H](O)[C@@H]6O)[C@@H](O)[C@@H]5O[C@@H]5OC(CO)C(O)[C@@H](O)[C@@H]5O)[C@](C)(CO)C4CC[C@@]3(C)[C@]1(C)C[C@H]2O (stereo partly specified) | 9.1% | 3.6 | 3.1 | 9.1% | 3.6 | 3.3 | 0% | – | – | – | – | – | – | – | – | –
2 | C/C=C(/C)C(=O)O[C@H]1[C@H](OC(C)=O)[C@@]2(CO)C(CC1(C)C)C1=CCC3[C@@]4(C)CC[C@H](O[C@@H]5OC(C(=O)O)C(O[C@@H]6OC(CO)C(O)[C@@H](O)[C@@H]6O)[C@@H](O)[C@@H]5O[C@@H]5OC(CO)C(O)[C@@H](O)[C@@H]5O)[C@](C)(CO)C4CC[C@@]3(C)[C@]1(C)C[C@H]2O (stereo partly specified) | 12.1% | 3.7 | 3.1 | 24.2% | – | 3.9 | 18.2% | 5.1 | 7.9 | 6.3 | 34.4% | 4.3 | 4.1 | 26% | 38.6% | 30.8%
3 | C/C=C(\C)C(=O)O[C@H]1[C@H](OC(C)=O)[C@@]2(CO)C(CC1(C)C)C1=CCC3[C@@]4(C)CC[C@H](O[C@@H]5O[C@H](C(=O)O)[C@@H](O[C@@H]6O[C@H](CO)[C@@H](O)[C@H](O)[C@H]6O)[C@H](O)[C@H]5O[C@@H]5OC[C@@H](O)[C@H](O)[C@H]5O)[C@](C)(CO)C4CC[C@@]3(C)[C@]1(C)C[C@H]2O (stereo partly specified) [AESCIN] | -6.3% | 3 | 3.1 | 12.5% | – | 3.1 | -3.1% | – | – | – | – | – | 3.6 | – | – | –
4 | CC1(C)CC2C3=CCC4[C@@]5(C)CC[C@H](O[C@@H]6OC(C(=O)O)C(O[C@@H]7OC(CO)C(O)[C@@H](O)[C@@H]7O)[C@@H](O)[C@@H]6O[C@@H]6OCC(O)[C@@H](O)[C@@H]6O)[C@](C)(CO)C5CC[C@@]4(C)[C@]3(C)C[C@@H](O)[C@@]2(CO)[C@@H](O)[C@@H]1O (stereo partly specified) | – | – | – | 3% | – | – | – | – | – | – | – | – | 3.4 | – | – | –
